Values after ≈ are worked out from the molar mass of the structure shown.
Tests used:
[1] = Aqueous solubility at 20° C.; type: physicochemical; settings: water
[2] = tested on: mice; settings: cited from earlier work

SMILES | solubility [1] [mg/mL] | solubility ([1]; Table 1) [mg/mL] | toxicity (LD 50 in mice, intravenous) [2] [g/kg]
OCC(I)=CI [Compound 2, 2,3-Diiodo-2-propene-1-ol] | 3.91 (≈ 12.6 mM) | 0.391 (≈ 1.26 mM) | –
OCC(I)=C(I)I [Compound 3, 2,3,3-Triiodo-2-propene-1-ol] | 0.198 (≈ 0.454 mM) | 0.198 (≈ 0.454 mM) | –
OCC(O)COCC(I)=CI (centres unmarked) [Compound 5, 3-(2,3-Diiodo-2-propenyloxy)-propane-1,2-diol] | 18.4 (≈ 47.9 mM) | 18.4 (≈ 47.9 mM) | –
OCCOCC(I)=C(I)COCCO [Compound 9, 2,2′-[2,3-Diiodo-2-butene-1,4-diylbis(oxy)]-bis-ethanol] | 7.2 (≈ 16.8 mM) | 7.2 (≈ 16.8 mM) | –
OCC(I)=C(I)CO [Compound 12, 2,3-Diiodo-2-butene-1,4-diol] | 0.534 (≈ 1.57 mM) | 0.534 (≈ 1.57 mM) | –
OCC(I)=C(I)C(I)=C(I)CO [Compound 16, 2,3,4,5-Tetraiodo-2,4-hexadiene-1,6-diol] | 0.183 (≈ 0.296 mM) | 0.183 (≈ 0.296 mM) | –
CC(=O)N(CC(O)CO)c1c(I)c(C(=O)NCC(O)CO)c(I)c(C(=O)NCC(O)CO)c1I (centres unmarked) [Iohexol, iohexol, reference compound] | – | > 1200 | 33.7

The next lines start with results.

solubility [1] [mg/mL] | solubility ([1]; Table 1) [mg/mL] | SMILES | toxicity (LD 50 in mice, intravenous) [2] [g/kg]
0.5 (≈ 0.981 mM) | 0.5 (≈ 0.981 mM) | OCC(O)COCC(I)=C(I)I (centres unmarked) [Compound 6, 3-(2,3,3-Triiodo-2-propenyloxy)-propane-1,2-diol] | –
> 1.2 | > 1200 | OCC(I)=C(I)COCC(O)CO (centres unmarked) [Compound 13, 3-[(2,3-Diiodo-4-hydroxy-2-butenyl)oxy]-propane-1,2-diol] | –
> 1.2 | > 1200 | OCC(O)COCC(I)=C(I)COCC(O)CO (centres unmarked) [Compound 14, 3,3′-[2,3-Diiodo-2-butene-1,4-diylbis(oxy)]-bis-propane-1,2-diol] | –

Reference: patent US6406680B1, “X-ray contrast agents” (Nycomed Imaging AS, priority 1999, dated 2002)
